Holding throughout (parameters): species or system AML cell lines (8); Primary HTS, single concentration about 10 uM, Cell Titer Glo viability; log10 luminescence, per cent inhibition relative to cycloheximide control
Holding throughout (details): 72 h, relative to cycloheximide control, log10 luminescence, inhibitor
Background: Cellular ATP, detected with luciferase, serves as a proxy for viable cell number.

The subject of experiment [1] is MV4-11.
Experiment [2] concerns CMS.
Experiment [3] deals with ML-2.
Experiment [4] has as its system M07e.
The subject of experiment [5] is CMK.
Experiment [6] relates to U937.
Experiment [7] deals with CHRF288-11.
Experiment [8] concerns MOLM-13.

Structures are written as SMILES. Like-named read-outs stand apart in the source and are kept apart here.

`COc1cc(C)c(N(C)C(=O)CN(C)C)cc1Nc1nc(Nc2cccc(F)c2C(N)=O)c2cc[nH]c2n1` [SJ000573042-1, N5326-79-1]: the MV4-11 %inh in experiment [1] was 3.146%. Further, the CMS %inh in experiment [2] turned out to be 1.596%. For the same compound, in experiment [3], the ML-2 %inh worked out at 14.99%. Moreover, the M07e %inh in experiment [4] is given as -1.728%. Moreover, the CMK %inh in experiment [5] was 3.967%. In experiment [6], the U937 %inh was -0.591%. Besides, the CHRF288-11 %inh in experiment [7] is 20.31%. Also, the MOLM-13 %inh in experiment [8] is -1.115%.

With `CC(C)[N+](C)(CCC(C(N)=O)(c1ccccc1)c1ccccc1)C(C)C` [SJ000285636-4, ISOPROPAMIDE IODIDE], the MV4-11 %inh in experiment [1] is -0.6779%. Further, the CMS %inh in experiment [2] is -2.262%. For the same compound, the ML-2 %inh in experiment [3] was -0.5962%. The M07e %inh in experiment [4] is 2.458%. In experiment [5], the CMK %inh is -6.961%. In addition, in experiment [6], the U937 %inh is listed as -1.123%. Also, the CHRF288-11 %inh in experiment [7] was determined as 8.188%. Further, in experiment [8], the MOLM-13 %inh was found to be 19.61%.

For `Nc1c(C(=O)c2cccc(C(O)CO)c2)cnn1-c1ccc(F)cc1` (centres unmarked) [SJ000581110-1], the MV4-11 %inh in experiment [1] is given as 3.101%. Besides, the CMS %inh in experiment [2] stood at 3.504%. The ML-2 %inh in experiment [3] is given as 2.206%. In addition, in experiment [4], the M07e %inh came out at 7.822%. Moreover, the CMK %inh in experiment [5] is -1.427%. In experiment [6], the U937 %inh is recorded as -0.488%. For the same compound, the CHRF288-11 %inh in experiment [7] was found to be 9.958%. In addition, the MOLM-13 %inh in experiment [8] is 27.67%.

For `CCc1c(C)nc2sc3c(N)ncnc3c2c1C` [SJ000581155-1], the MV4-11 %inh in experiment [1] came to 0.965%. Moreover, the CMS %inh in experiment [2] was found to be 6.427%. Besides, in experiment [3], the ML-2 %inh is recorded as 1.162%. The M07e %inh in experiment [4] is listed as 3.066%. Further, the CMK %inh in experiment [5] is on record as 26.14%. For the same compound, the U937 %inh in experiment [6] amounted to 2.164%. Further, the CHRF288-11 %inh in experiment [7] was found to be 5.014%. The MOLM-13 %inh in experiment [8] stood at 58.52%.

In the case of `COc1cc(N2CCN(C(C)C)CC2)ccc1Nc1nc(Nc2cccc(F)c2C(=O)O)c2cc[nH]c2n1` [SJ000573302-1, U24644/141/1], in experiment [1], the MV4-11 %inh is -1.676%. In addition, the CMS %inh in experiment [2] is reported as -1.742%. The ML-2 %inh in experiment [3] is on record as 1.383%. In experiment [4], the M07e %inh worked out at 1.407%. Further, the CMK %inh in experiment [5] was -4.539%. Besides, in experiment [6], the U937 %inh is recorded as -3.308%. Besides, the CHRF288-11 %inh in experiment [7] was found to be 2.245%. In experiment [8], the MOLM-13 %inh is recorded as -2.196%.

Turning to `C[C@H](CS)C(=O)N1CCC[C@H]1C(=O)O` [SJ000286908-7, CAPTOPRIL], the MV4-11 %inh in experiment [1] (MV4-11 %inh, 10 µM) was determined as 2.877%. Moreover, the CMS %inh in experiment [2] (CMS %inh, 10 µM) amounted to 0.1894%. The ML-2 %inh in experiment [3] (ML-2 %inh, 10 µM) is given as -0.2844%. The M07e %inh in experiment [4] (M07e %inh, 10 µM) was 3.365%. Further, in experiment [5] (CMK %inh, 10 µM), the CMK %inh is -2.127%. The U937 %inh in experiment [6] (U937 %inh, 10 µM) was 2.172%. Besides, the CHRF288-11 %inh in experiment [7] (CHRF288-11 %inh, 10 µM) worked out at 0.04975%. Moreover, the MOLM-13 %inh in experiment [8] (MOLM-13 %inh, 10 µM) was determined as 2.932%.

In the case of `COC(=O)Nc1nc2ccc(S(=O)(=O)c3ccc(NC(=O)Nc4cc(C(F)(F)F)ccc4F)cc3)cc2[nH]1` [SJ000573094-1, T229/157/1], the MV4-11 %inh in experiment [1] is listed as -0.02364%. Besides, in experiment [2], the CMS %inh turned out to be 3.097%. The ML-2 %inh in experiment [3] is listed as -2.541%. The M07e %inh in experiment [4] is reported as 3.593%. In experiment [5], the CMK %inh amounted to 2.078%. In addition, in experiment [6], the U937 %inh stood at 1.083%. Besides, in experiment [7], the CHRF288-11 %inh is given as 9.928%. Further, the MOLM-13 %inh in experiment [8] is 1.464%.

On to `Fc1ccc(-c2c(-c3ccncc3)[nH]c3cccnc23)cc1` [SJ000581088-1], for which the MV4-11 %inh in experiment [1] came out at 0.5271%. Moreover, in experiment [2], the CMS %inh came to 0.767%. For the same compound, the ML-2 %inh in experiment [3] is listed as -1.446%. Besides, the M07e %inh in experiment [4] is 3.19%. Besides, the CMK %inh in experiment [5] is -0.07997%. The U937 %inh in experiment [6] is listed as 1.73%. Besides, the CHRF288-11 %inh in experiment [7] turned out to be 1.888%. In addition, the MOLM-13 %inh in experiment [8] was -2.723%.

With `C[C@]12C=CC(=O)C=C1CC[C@@H]1[C@@H]2[C@@H](O)C[C@@]2(C)[C@H]1CC[C@]2(O)C(=O)COP(=O)(O)O` [SJ000555709-1, PREDNISOLONE SODIUM PHOSPHATE], the MV4-11 %inh in experiment [1] is recorded as 1.456%. In experiment [2], the CMS %inh amounted to 9.04%. The ML-2 %inh in experiment [3] was -0.8263%. Also, the M07e %inh in experiment [4] is -1.037%. Besides, in experiment [5], the CMK %inh is on record as 1.948%. Besides, the U937 %inh in experiment [6] was determined as 2.195%. Further, the CHRF288-11 %inh in experiment [7] is on record as 1.976%. The MOLM-13 %inh in experiment [8] is on record as 2.036%.

On to `CC(=O)Nc1cccc(-n2c(=O)n(C3CC3)c(=O)c3c(Nc4ccc(I)cc4F)n(C)c(=O)c(C)c32)c1` [SJ000574293-1, TRAMETINIB | GSK-1120212B | JTP-74057 | 1120212 | GSK-1120212 | GSK1120212 | TRAMETINIB (GSK1120212)], for which the MV4-11 %inh in experiment [1] turned out to be 40.11%. In addition, the CMS %inh in experiment [2] came to 21.59%. Also, in experiment [3], the ML-2 %inh amounted to 27.14%. Also, the M07e %inh in experiment [4] stood at 16.11%. Besides, in experiment [5], the CMK %inh is recorded as 4.055%. Besides, the U937 %inh in experiment [6] was 11.49%. Further, in experiment [7], the CHRF288-11 %inh came to 30.11%. The MOLM-13 %inh in experiment [8] is reported as 39.84%.

Consider `O=C1NC(=O)C(c2c[nH]c3ccccc23)=C1c1ccccc1` [SJ000581075-1], for which the MV4-11 %inh in experiment [1] was 1.744%. Further, the CMS %inh in experiment [2] is -0.679%. For the same compound, the ML-2 %inh in experiment [3] came out at 1.922%. The M07e %inh in experiment [4] is 3.019%. Also, the CMK %inh in experiment [5] is recorded as -2.624%. For the same compound, the U937 %inh in experiment [6] is reported as 2.672%. In addition, the CHRF288-11 %inh in experiment [7] came out at 16.2%. Besides, the MOLM-13 %inh in experiment [8] is given as -2.51%.

In the case of `COc1ccc(C2=CC3=C(Br)C(=O)C(C)(O)C(=O)C3=CO2)cc1` (centres unmarked) [SJ000580186-1], the MV4-11 %inh in experiment [1] was 1.031%. In experiment [2], the CMS %inh is -0.7753%. Moreover, the ML-2 %inh in experiment [3] is listed as -0.5513%. Further, the M07e %inh in experiment [4] was 0.3527%. For the same compound, the CMK %inh in experiment [5] is -1.841%. Besides, the U937 %inh in experiment [6] is given as 1.575%. In addition, the CHRF288-11 %inh in experiment [7] is on record as -2.02%. Besides, the MOLM-13 %inh in experiment [8] turned out to be 3.615%.

For the compound `c1cnn2ncc(-c3ccnc(NCCCN4CCOCC4)n3)c2c1` [SJ000573132-1, U14929/199/1], the MV4-11 %inh in experiment [1] is 15.28%. Further, in experiment [2], the CMS %inh came out at 12.25%. Moreover, the ML-2 %inh in experiment [3] is reported as 4.815%. The M07e %inh in experiment [4] is recorded as 4.031%. For the same compound, the CMK %inh in experiment [5] is 3.496%. Further, the U937 %inh in experiment [6] is 21.78%. In experiment [7], the CHRF288-11 %inh is 17.57%. The MOLM-13 %inh in experiment [8] came to 36.05%.

Take `NS(=O)(=O)c1ccc(Nc2cc(-c3cccc(O)c3)n[nH]2)cc1` [SJ000573324-1, T350/111/20]: the MV4-11 %inh in experiment [1] is 18.96%. Besides, in experiment [2], the CMS %inh was found to be 0.8193%. In experiment [3], the ML-2 %inh stood at 1.059%. In addition, the M07e %inh in experiment [4] is given as -0.9399%. For the same compound, in experiment [5], the CMK %inh is -2.15%. In addition, in experiment [6], the U937 %inh was -2.304%. Moreover, the CHRF288-11 %inh in experiment [7] was -4.339%. Moreover, the MOLM-13 %inh in experiment [8] is recorded as 21.76%.

As for `CS(=O)(=O)CCNCc1ccc(-c2ccc3ncnc(Nc4ccc(OCc5cccc(C(F)(F)F)c5)cc4)c3c2)o1` [SJ000573107-1, U14801/49/2], the MV4-11 %inh in experiment [1] came out at 64.67%. Further, the CMS %inh in experiment [2] is on record as 0.378%. Besides, the ML-2 %inh in experiment [3] is on record as 1.894%. In experiment [4], the M07e %inh is listed as -0.9182%. In addition, the CMK %inh in experiment [5] is reported as 3.779%. Moreover, in experiment [6], the U937 %inh was -2.16%. In addition, in experiment [7], the CHRF288-11 %inh worked out at 2.523%. Also, the MOLM-13 %inh in experiment [8] was 82.16%.

Regarding `Cn1cc(C2=C(c3cn(CCCN=C(N)N)c4ccccc34)C(=O)NC2=O)c2ccccc21` [SJ000581011-1], in experiment [1], the MV4-11 %inh was 6.352%. Besides, the CMS %inh in experiment [2] was -3.925%. Besides, in experiment [3], the ML-2 %inh is reported as 1.035%. Also, the M07e %inh in experiment [4] was -0.6273%. The CMK %inh in experiment [5] is -5.09%. In addition, the U937 %inh in experiment [6] is listed as -0.6406%. For the same compound, the CHRF288-11 %inh in experiment [7] is given as 6.037%. In addition, the MOLM-13 %inh in experiment [8] came to 3.172%.

The values are drawn from publication PMC6522510 (Nature Communications, 2019).
